# Like-named read-outs stand apart in the source and are kept apart here.
# Legend:
# [1] = molecular target: T1, human KEAP1 (N-term, residues 321-609) (Homo sapiens, UniProt Q14145); experiment: KEAP1 Kelch Fluorescence Polarization (FP) Assay; assay type: binding; conditions: inhibition of Kelch domain-NRF2 interaction; 2 nM FITC-labelled NRF2 peptide, 25 nM KEAP1, 1 h room temperature; compounds below 10 nM cannot be differentiated
# T1 construct: human KEAP1 (N-term, residues 321-609)
# How it was run: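 FP competition: 2 nM FITC-NRF2 peptide (LDEETGEFL) with 25 nM KEAP1 Kelch domain, pH 8.0 Tris buffer, 0.5% DMSO, 1 h at room temperature; 12-point 1:3 dilutions from 10 μM.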
# [2] = system: NRF2 mediated gene NAD(P)H:quinone acceptor oxidoreductase 1 (NQO1) in BEAS-2B cells; experiment: Beas2B NQO1 mRNA Cell Based Assay; design: species or system human
# Protocol: Beas2B NQO1 mRNA Cell Based Assay
# The up regulation of the NRF2 mediated gene NAD(P)H:quinone acceptor oxidoreductase 1 (NQO1) was measured using the following assay method: BEAS-2B cells (ATCC CRL-9609) were plated in 96-well clear plates at 20,000 cells/well in 75 μL of cell culture media and incubated overnight (37° C., 5% CO2). On day 2, 25 μL of compound or controls were added to the cells for 24 h. On day 3, the medium was aspirated from the plate and the Cells-to-CT™ 1-Step TaqMan® Kit (Ambion A25603) was used to perform expression analysis directly from cultured cells without RNA purification according to the manufacturer's instructions.
# Briefly, cells were washed with ice cold PBS and 22.5 μL of room-temperature DNase/Lysis solution was added to the cells and incubated at room temperature for 5 minutes. To stop the reaction, 2.25 μL of stop solution was added to the cell lysate. The samples were diluted 1:5 using nuclease free water and 2.5 μL transferred into the PCR plate. Real-time PCR was performed using the C-1000 Thermal Cycler (Bio-Rad) using human beta actin as the internal control. The cDNA was amplified with a specific primer for NQO1 using the 1-step RT-PCR master mix (Ambion Cells-to-CTTM 1-Step TaqMan® Kit A25603). The primers/probes sets that were used for amplification of cDNA were obtained from TaqMan Gene Expression Assays (Applied Biosystems). The comparative CT (ΔΔCT) relative quantification method was used to calculate the relative mRNA level of the target gene NQO1 as described in the Applied Biosystems Chemistry Guide. The data are expressed as an increase in target gene mRNA compared to vehicle (0.1% DMSO) control and the EC50 values were determined by fitting the data to a four parameter logistic fit using XLfit or XE Runner within ActivityBase.
# [3] = Homo sapiens, BEAS-2B cells, compound for 24 h, increase in NQO1 mRNA compared to vehicle (0.1% DMSO) control, read-out: EC50
# T1 sequence (Q14145 321-609): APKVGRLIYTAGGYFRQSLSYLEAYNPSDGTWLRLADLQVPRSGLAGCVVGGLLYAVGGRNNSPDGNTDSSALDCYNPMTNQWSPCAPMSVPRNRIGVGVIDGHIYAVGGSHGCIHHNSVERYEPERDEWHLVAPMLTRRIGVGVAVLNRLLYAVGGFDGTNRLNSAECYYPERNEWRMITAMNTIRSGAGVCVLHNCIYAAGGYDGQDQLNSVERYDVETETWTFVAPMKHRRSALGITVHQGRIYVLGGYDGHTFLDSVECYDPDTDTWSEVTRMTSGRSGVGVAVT
SMILES,IC50 [1] [nM],"EC50 [2, 3] [nM]","EC50 ([2]; BEAS-2B cells, compound for 24 h, increase in NQO1 mRNA compared to vehicle (0.1% DMSO) control, read-out: EC50) [nM]","EC50 ([2]; Homo sapiens, BEAS-2B, 24 h) [nM]"
"Cc1c(COc2c(F)cc(Cl)c3c2[C@@H](CN2CC4(CC4)CC2=O)N(C(=O)[C@@H]2CCCC[C@]2(C)C(N)=O)CC3)nnn1C [Example 112, (1S,2R)-2-((S)-5-chloro-8-((1,5-dimethyl-1H-1,2,3-triazol-4-yl)methoxy)-7-fluoro-1-((6-oxo-5-azaspiro[2.4]heptan-5-yl)methyl)-1,2,3,4-tetrahydroisoquinoline-2-carbonyl)-1-methylcyclohexane-1-carboxamide]",7,99,–,–
"CNC(=O)[C@H]1CCCC[C@H]1C(=O)N1CCc2c(Cl)ccc(OCc3noc4ncccc34)c2[C@H]1CN1CCCC1=O [Example 70, (1S,2R)-2-((S)-5-chloro-8-(isoxazolo[5,4-b]pyridin-3-ylmethoxy)-1-((2-oxopyrrolidin-1-yl)methyl)-1,2,3,4-tetrahydroisoquinoline-2-carbonyl)-N-methylcyclohexane-1-carboxamide]",29,295,–,–
"CNC(=O)N1CCCC[C@H]1C(=O)N1CCc2c(Cl)ccc(OCc3cn(C)nn3)c2[C@H]1CN1CCCC1=O [Example 92, (S)-2-((S)-5-chloro-8-((1-methyl-1H-1,2,3-triazol-4-yl)methoxy)-1-((2-oxopyrrolidin-1-yl)methyl)-1,2,3,4-tetrahydroisoquinoline-2-carbonyl)-N-methylpiperidine-1-carboxamide]",12,565,–,–
"CNC(=O)C1OCCC1C(=O)N1CCc2c(Cl)ccc(OCc3nnn(C)c3C(F)F)c2[C@H]1CN1CCCC1=O (single isomer, unassigned) [Example 82]",4070,1740,–,–
"CNC(=O)[C@]1(C)CCCC[C@@H]1C(=O)N1CCc2c(Cl)ccc(OCc3nnn(C)c3C(F)F)c2[C@@H]1CN1CC2(CC2)CC1=O [Example 98, (1R,2S)-2-((R)-5-chloro-8-((5-(difluoromethyl)-1-methyl-1 H-1,2,3-triazol-4-yl)methoxy)-1-((6-oxo-5-azaspiro[2.4]heptan-5-yl)methyl)-1,2,3,4-tetrahydroisopuinoline-2-carbonyl)-N,1-dimethylcyclohexane-1-carboxamide]",6,–,41,–
"CNC(=O)N1CC2(CC2)C[C@H]1C(=O)N1CCc2c(Cl)ccc(OCc3nnn(C)c3C(F)F)c2[C@H]1CN1CCCC1=O [Example 88, (S)-6-((S)-5-chloro-8-((5-(difluoromethyl)-1-methyl-1 H-1,2,3-triazol-4-yl)methoxy)-1-((2-oxopyrrolidin-1-yl)methyl)-1,2,3,4-tetrahydroisoquinoline-2-carbonyl)-N-methyl-5-azaspiro[2.41]heptane-5-carboxamide]",67,–,–,7560
"CNC(=O)[C@H]1CCCC[C@H]1C(=O)N1CCc2c(Br)ccc(OCc3nnn(C)c3C(F)F)c2[C@H]1CN1Cc2ccccc2C1=O [Example 56, (1S,2R)-2-((S)-5-bromo-8-((5-(difluoromethyl)-1-methyl-1H-1,2,3-triazol-4-yl)methoxy)-1-((1-oxoisoindolin-2-yl)methyl)-1,2,3,4-tetrahydroisoquinoline-2-carbonyl)-N-methylcyclohexane-1-carboxamide]",13,124,–,–
"Cn1nnc(COc2c(F)cc(Cl)c3c2[C@@H](CN2CC4(CC4)CC2=O)N(C(=O)[C@@H]2CCCC[C@]2(C)C(N)=O)CC3)c1C(F)F [Example 107, (1S,2R)-2-((S)-5-chloro-8-((5-(difluoromethyl)-1-methyl-1H-1,2,3-triazol-4-yl)methoxy)-7-fluoro-1-((6-oxo-5-azaspiro[2.4]heptan-5-yl)methyl)-1,2,3,4-tetrahydroisoquinoline-2-carbonyl)-1-methylcyclohexane-1-carboxamide]",6.2,37,–,–

# Further molecules by falling IC50 [1], results first:
IC50 [1] [nM],SMILES,"EC50 [2, 3] [nM]","EC50 ([2]; BEAS-2B cells, compound for 24 h, increase in NQO1 mRNA compared to vehicle (0.1% DMSO) control, read-out: EC50) [nM]","EC50 ([2]; Homo sapiens, BEAS-2B, 24 h) [nM]"
851,"CNC(=O)[C@@]1(C)CCCC[C@H]1C(=O)N1CCc2c(Cl)ccc(OCc3cn(C)nn3)c2[C@H]1CN1CCCC1=O [Example 93, (1S,2R)-2-((S)-5-chloro-8-((1-methyl-1H-1,2,3-triazol-4-yl)methoxy)-1-((2-oxopyrrolidin-1-yl)methyl)-1,2,3,4-tetrahydroisoquinoline-2-carbonyl)-N,1-dimethylcyclohexane-1-carboxamide]",> 10000,–,–
196,"CCNC(=O)[C@H]1CCCC[C@H]1C(=O)N1CCc2cccc(OCCNC(=O)c3cc(C)on3)c2[C@H]1CN1C(=O)c2ccccc2C1=O [Example 6, N-(2-(((S)-1-((1,3-dioxoisoindolin-2-yl)-methyl)-2((1R,2S)-2-(ethylcarbamoyl)cyclohexane-1-carbonyl)-1,2,3,4-tetrahydroisoguinolin-8-yl)oxy)ethyl)-5-methylisoxazole-3-carboxamide]",2360,–,–
34,"CNC(=O)[C@H]1CCCC[C@H]1C(=O)N1CCc2c(Cl)ccc(OCc3cccnn3)c2[C@H]1CN1CCCC1=O [Example 61, (1S,2R)-2-((S)-5-chloro-1-((2-oxopyrrolidin-1-yl)methyl)-8-(pyridazin-3-ylmethoxy)-1,2,3,4-tetrahydroisoquinoline-2-carbonyl)-N-methylcyclohexane-1-carboxamide]",1080,–,–
31,"NC(=O)[C@H]1CCCC[C@H]1C(=O)N1CCc2c(Cl)ccc(OCc3noc4ccccc34)c2[C@H]1CN1CCCC1=O [Example 54, (1S,2R)-2-((S)-8-(benzo[d]isoxazol-3-ylmethoxy)-5-chloro-1-((2-oxopyrrolidin-1-yl)methyl)-1,2,3,4-tetrahydroisoquinoline-2-carbonyl)cyclohexane-1-carboxamide, reference compound]",135,–,–
29,"CNC(=O)[C@H]1CCCC[C@H]1C(=O)N1CCc2cccc(O[C@H]3CCN(C(=O)c4cc(C)on4)C3)c2[C@H]1CN1C(=O)c2ccccc2C1=O [Example 20, (1S,2R)-2-((S)-1-((1,3-dioxoisoindolin-2-yl)methyl)-8-(((S)-1-(5-methylisoxazole-3-carbonyl)pyrrolidin-3-yl)oxy)-1,2,3,4-tetrahydroisoquinoline-2-carbonyl)-N-methylcyclohexane-1-carboxamide]",> 500,–,–
17,"CNC(=O)[C@@]1(C)CCCC[C@H]1C(=O)N1CCc2c(Cl)ccc(OCc3nnn(C)c3COC)c2[C@H]1CN1C[C@H](C)CC1=O [Example 105, (1S,2R)-2-((S)-5-chloro-8-((5-(methoxymethyl)-1-methyl-1H-1,2,3-triazol-4-yl)methoxy)-1-(((R)-4-methyl-2-oxopyrrolidin-1-yl)methyl)-1,2,3,4-tetrahydroisoquinoline-2-carbonyl)-N,1-dimethylcyclohexane-1-carboxamide]",790,–,–
16,"CNC(=O)[C@H]1CCCC[C@H]1C(=O)N1CCc2c(Cl)ccc(OCc3cn(C)nn3)c2[C@H]1CN1CCCC1=O [Example 74, (1S,2R)-2-((S)-5-chloro-8-((1-methyl-1H-1,2,3-triazol-4-yl)methoxy)-1-((2-oxopyrrolidin-1-yl)methyl)-1,2,3,4-tetrahydroisoquinoline-2-carbonyl)-N-methylcyclohexane-1-carboxamide]",334,–,–
14,"CNC(=O)[C@@]1(C)CCCC[C@H]1C(=O)N1CCc2c(Cl)ccc(OCc3nnn(C)c3C(F)F)c2[C@H]1CN1CCCC1=O [Example 69, (1S,2R)-2-((S)-5-chloro-8-((5-(difluoromethyl)-1-methyl-1H-1,2,3-triazol-4-yl)methoxy)-1-((2-oxopyrrolidin-1-yl)methyl)-1,2,3,4-tetrahydroisoquinoline-2-carbonyl)-N,1-dimethylcyclohexane-1-carboxamide]",239,–,–
12,"CNC(=O)[C@@]1(C)CCCC[C@H]1C(=O)N1CCc2c(Cl)ccc(OCc3cn(C)nn3)c2[C@H]1CN1CC2(CC2)CC1=O [Example 102, (1S,2R)-2-((S)-5-chloro-8-((1-methyl-1H-1,2,3-triazol-4-yl)methoxy)-1-((6-oxo-5-azaspiro[2.4]heptan-5-yl)methyl)-1,2,3,4-tetrahydroisoquinoline-2-carbonyl)-N,1-dimethylcyclohexane-1-carboxamide]",59,–,–
